This is an account of results in patent US8999940B2 (Ipsen Pharma S.A.S., priority 2008, dated 2015).

Where a SMILES comes first, the peptide text is derived from it. Where no end group is shown, it is not given here. [ ]: non-standard residue; d: D form. The star is where a group is joined. Tic(7-OH) = O=C(O)[C@@H]1Cc2ccc(O)cc2CN1; Desaminotyrosyl = O=C(CCc1ccc(O)cc1)*; Nle = CCCC[C@H](N)C(=O)O; Ac5c = NC1(C(=O)O)CCCC1; Aib = CC(C)(N)C(=O)O

The target of the first test is T1, human recombinant GIP receptor (Homo sapiens, UniProt P48546).
T1 construct: expressed in transfected cells; host or cells: CHO-K1 clonal cells (membrane preparation)
T1 sequence (P48546 22-466): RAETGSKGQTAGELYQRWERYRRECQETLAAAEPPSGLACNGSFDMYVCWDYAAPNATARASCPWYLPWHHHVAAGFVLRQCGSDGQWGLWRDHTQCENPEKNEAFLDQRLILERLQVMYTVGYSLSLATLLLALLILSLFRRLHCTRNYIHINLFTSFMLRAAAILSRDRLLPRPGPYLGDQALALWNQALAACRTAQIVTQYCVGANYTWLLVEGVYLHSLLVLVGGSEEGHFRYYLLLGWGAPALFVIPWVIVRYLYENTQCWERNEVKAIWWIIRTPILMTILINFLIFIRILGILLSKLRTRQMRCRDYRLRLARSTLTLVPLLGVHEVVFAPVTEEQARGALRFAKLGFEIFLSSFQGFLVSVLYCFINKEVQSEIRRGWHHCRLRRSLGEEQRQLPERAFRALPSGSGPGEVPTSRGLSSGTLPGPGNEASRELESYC
The test can be described thus: In vitro hGIP receptor binding assay.
Conditions: not given
The protocol: A. In Vitro hGIP Receptor Binding Assay […] The incubations were terminated by rapid filtration through GF/C filters (pre-soaked in 0.5% polyethylenimine) using a Brandel filtration manifold. Each tube and filter were then washed three times with 5-ml aliquots of ice-cold buffer.
By Ki is commonly meant the dissociation constant of the complex between target and ligand, obtained from inhibition or displacement. With `CC[C@H](C)[C@H](NC(=O)[C@H](CCCCN)NC(=O)[C@H](CC(=O)O)NC(=O)[C@H](CCSC)NC(=O)[C@H](C)NC(=O)[C@@H](NC(=O)C(C)(C)NC(=O)[C@H](Cc1ccc(O)cc1)NC(=O)[C@H](CC(=O)O)NC(=O)[C@H](CO)NC(=O)[C@@H](NC(=O)[C@H](Cc1ccccc1)NC(=O)[C@@H](NC(=O)CNC(=O)[C@H](CCC(=O)O)NC(=O)C(C)(C)NC(=O)CCc1ccc(O)cc1)[C@@H](C)O)[C@@H](C)CC)[C@@H](C)CC)C(=O)N[C@@H](Cc1c[nH]cn1)C(=O)N[C@@H](CCC(N)=O)C(=O)N[C@@H](CCC(N)=O)C(=O)N[C@@H](CC(=O)O)C(=O)N[C@@H](Cc1ccccc1)C(=O)N[C@H](C(=O)N[C@@H](CC(N)=O)C(=O)N[C@@H](Cc1c[nH]c2ccccc12)C(=O)N[C@@H](CC(C)C)C(=O)N[C@@H](CC(C)C)C(=O)N[C@@H](C)C(=O)N[C@@H](CCC(N)=O)C(=O)N[C@@H](CCCCN)C(N)=O)C(C)C` [Example 4, (4Hppa^1, Aib^2,11)hGIP(1-30)-NH2] (Desaminotyrosyl-[Aib]EGTFISDY[Aib]IAMDKIHQQDFVNWLLAQK-NH2), the Ki amounted to 15.4 nM.
Take `CC[C@H](C)[C@H](NC(=O)[C@H](CO)NC(=O)[C@H](Cc1ccc(O)cc1)NC(=O)[C@H](CC(=O)O)NC(=O)[C@H](CO)NC(=O)[C@@H](NC(=O)[C@H](Cc1ccccc1)NC(=O)[C@@H](NC(=O)CNC(=O)[C@H](CCC(=O)O)NC(=O)C(C)(C)NC(=O)CCc1ccc(O)cc1)[C@@H](C)O)[C@@H](C)CC)C(=O)N[C@@H](C)C(=O)N[C@@H](CCSC)C(=O)N[C@@H](CC(=O)O)C(=O)N[C@@H](CCCCN)C(=O)N[C@H](C(=O)N[C@@H](Cc1c[nH]cn1)C(=O)N[C@@H](CCC(N)=O)C(=O)N[C@@H](CCC(N)=O)C(=O)N[C@@H](CC(=O)O)C(=O)N[C@@H](Cc1ccccc1)C(=O)N[C@H](C(=O)N[C@@H](CC(N)=O)C(=O)N[C@@H](Cc1c[nH]c2ccccc12)C(=O)N[C@@H](CC(C)C)C(=O)N[C@@H](CC(C)C)C(=O)N[C@@H](C)C(=O)N[C@@H](CCC(N)=O)C(=O)N[C@@H](CCCCN)C(N)=O)C(C)C)[C@@H](C)CC` [Example 6, (4Hppa^1, Aib^2)hGIP(1-30)-NH2]: the Ki was 1.58 nM.
The same measure, in the same setting: next, `CCCC[C@H](NC(=O)[C@H](C)NC(=O)[C@@H](NC(=O)C(C)(C)NC(=O)[C@H](Cc1ccc(O)cc1)NC(=O)[C@H](CC(=O)O)NC(=O)[C@H](CO)NC(=O)[C@@H](NC(=O)[C@H](Cc1ccccc1)NC(=O)[C@@H](NC(=O)CNC(=O)[C@H](CCC(=O)O)NC(=O)C(C)(C)NC(=O)CCc1ccc(O)cc1)[C@@H](C)O)[C@@H](C)CC)[C@@H](C)CC)C(=O)N[C@@H](CC(=O)O)C(=O)N[C@@H](CCCCN)C(=O)N[C@H](C(=O)N[C@@H](Cc1c[nH]cn1)C(=O)N[C@@H](CCC(N)=O)C(=O)N[C@@H](CCC(N)=O)C(=O)N[C@@H](CC(=O)O)C(=O)N[C@@H](Cc1ccccc1)C(=O)N[C@H](C(=O)N[C@@H](CC(N)=O)C(=O)N[C@@H](Cc1c[nH]c2ccccc12)C(=O)N[C@@H](CC(C)C)C(=O)N[C@@H](CC(C)C)C(=O)N[C@@H](C)C(=O)N[C@@H](CCC(N)=O)C(=O)N[C@@H](CCCCN)C(N)=O)C(C)C)[C@@H](C)CC` [Example 2, (4Hppa^1, Aib^2,11, Nle^14)hGIP(1-30)-NH2] (Desaminotyrosyl-[Aib]EGTFISDY[Aib]IA[Nle]DKIHQQDFVNWLLAQK-NH2): 20.3 nM; `CCCC[C@H](NC(=O)[C@H](C)NC(=O)[C@@H](NC(=O)[C@H](CO)NC(=O)[C@H](Cc1ccc(O)cc1)NC(=O)[C@H](CC(=O)O)NC(=O)[C@H](CO)NC(=O)C1(NC(=O)[C@H](Cc2ccccc2)NC(=O)[C@@H](NC(=O)CNC(=O)[C@H](CCC(=O)O)NC(=O)C(C)(C)NC(=O)CCc2ccc(O)cc2)[C@@H](C)O)CCCC1)[C@@H](C)CC)C(=O)N[C@@H](CC(=O)O)C(=O)N[C@@H](CCCCN)C(=O)N[C@H](C(=O)N[C@@H](Cc1c[nH]cn1)C(=O)N[C@@H](CCC(N)=O)C(=O)N[C@@H](CCC(N)=O)C(=O)N[C@@H](CC(=O)O)C(=O)N[C@@H](Cc1ccccc1)C(=O)N[C@H](C(=O)N[C@@H](CC(N)=O)C(=O)N[C@@H](Cc1c[nH]c2ccccc12)C(=O)N[C@@H](CC(C)C)C(=O)N[C@@H](CC(C)C)C(=O)N[C@@H](C)C(=O)N[C@@H](CCC(N)=O)C(=O)N[C@@H](CCCCN)C(N)=O)C(C)C)[C@@H](C)CC` [Example 1, (4Hppa^1, Aib^2, A5c^7, Nle^14)hGIP(1-30)-NH2] (Desaminotyrosyl-[Aib]EGTF[Ac5c]SDYSIA[Nle]DKIHQQDFVNWLLAQK-NH2): 12.6 nM; `CC[C@H](C)[C@H](NC(=O)[C@H](CCCCN)NC(=O)[C@H](CC(=O)O)NC(=O)C1(NC(=O)[C@H](C)NC(=O)[C@@H](NC(=O)C2(NC(=O)[C@H](Cc3ccc(O)cc3)NC(=O)[C@H](CC(=O)O)NC(=O)[C@H](CO)NC(=O)[C@@H](NC(=O)[C@H](Cc3ccccc3)NC(=O)[C@@H](NC(=O)CNC(=O)[C@H](CCC(=O)O)NC(=O)C(C)(C)NC(=O)[C@@H](N)Cc3ccc(O)c(Br)c3)[C@@H](C)O)[C@@H](C)CC)CCCC2)[C@@H](C)CC)CCCC1)C(=O)N[C@@H](Cc1c[nH]cn1)C(=O)N[C@@H](CCC(N)=O)C(=O)N[C@@H](CCC(N)=O)C(=O)N[C@@H](CC(=O)O)C(=O)N[C@@H](Cc1ccccc1)C(=O)N[C@H](C(=O)N[C@@H](CC(N)=O)C(=O)N[C@@H](Cc1c[nH]c2ccccc12)C(=O)N[C@@H](CC(C)C)C(=O)N[C@@H](CC(C)C)C(=O)N[C@@H](C)C(=O)N[C@@H](CCC(N)=O)C(=O)N[C@@H](CCCCN)C(=O)NCC(=O)N[C@@H](CCCCN)C(=O)N[C@@H](CCCCN)C(=O)N[C@@H](CC(N)=O)C(=O)N[C@@H](CC(=O)O)C(=O)N[C@@H](Cc1c[nH]c2ccccc12)C(=O)N[C@@H](CCCCN)C(=O)N[C@@H](Cc1c[nH]cn1)C(=O)N[C@@H](CC(N)=O)C(=O)N[C@H](C(=O)N[C@H](C(=O)N[C@@H](CCC(N)=O)C(=O)N[C@@H](Cc1c[nH]cn1)C(=O)O)[C@@H](C)O)[C@@H](C)CC)C(C)C` [Example 72, (3Br-Tyr^1, Aib^2, A5c^11, 14, His^43)hGIP(1-43)-OH]: 0.92 nM.
On the same count and under the same terms, to `CCCC[C@H](NC(=O)[C@H](C)NC(=O)[C@@H](NC(=O)C1(NC(=O)[C@H](Cc2ccc(O)cc2)NC(=O)[C@H](CC(=O)O)NC(=O)[C@H](CO)NC(=O)[C@@H](NC(=O)[C@H](Cc2ccccc2)NC(=O)[C@@H](NC(=O)CNC(=O)[C@H](CCC(=O)O)NC(=O)C(C)(C)NC(=O)[C@@H](N)Cc2ccc(O)c(Br)c2)[C@@H](C)O)[C@@H](C)CC)CCCC1)[C@@H](C)CC)C(=O)N[C@@H](CC(=O)O)C(=O)N[C@@H](CCCCN)C(=O)N[C@H](C(=O)N[C@@H](Cc1c[nH]cn1)C(=O)N[C@@H](CCC(N)=O)C(=O)N[C@@H](CCC(N)=O)C(=O)N[C@@H](CC(=O)O)C(=O)N[C@@H](Cc1ccccc1)C(=O)N[C@H](C(=O)N[C@@H](CC(N)=O)C(=O)N[C@@H](Cc1c[nH]c2ccccc12)C(=O)N[C@@H](CC(C)C)C(=O)N[C@@H](CC(C)C)C(=O)N[C@@H](C)C(=O)N[C@@H](CCC(N)=O)C(=O)N[C@@H](CCCCN)C(=O)NCC(=O)N[C@@H](CCCCN)C(=O)N[C@@H](CCCCN)C(=O)N[C@@H](CC(N)=O)C(=O)N[C@@H](CC(=O)O)C(=O)N[C@@H](Cc1c[nH]c2ccccc12)C(=O)N[C@@H](CCCCN)C(=O)N[C@@H](Cc1c[nH]cn1)C(=O)N[C@@H](CC(N)=O)C(=O)N[C@H](C(=O)N[C@H](C(=O)N[C@@H](CCC(N)=O)C(=O)N[C@@H](Cc1c[nH]cn1)C(=O)O)[C@@H](C)O)[C@@H](C)CC)C(C)C)[C@@H](C)CC` [Example 71, (3Br-Tyr^1, Aib^2, A5c^11, Nle^14, His^43)hGIP(1-43)-OH] belongs 1.09 nM; to “[Tic(7-OH)][Aib]EGTFISDY[Ac5c]IAMDKIHQQDFVNWLLAQKGKKNDWKHNITQH-OH [Example 77, (7HO-Tic^1, Aib^2, A5c^11, His^43)hGIP(1-43)-OH]”, 4.82 nM; to `CC[C@H](C)[C@H](NC(=O)[C@H](CO)NC(=O)[C@H](Cc1ccc(O)cc1)NC(=O)[C@H](CC(=O)O)NC(=O)[C@H](CO)NC(=O)C1(NC(=O)[C@H](Cc2ccccc2)NC(=O)[C@@H](NC(=O)CNC(=O)[C@H](CCC(=O)O)NC(=O)C(C)(C)NC(=O)CCc2ccc(O)cc2)[C@@H](C)O)CCCC1)C(=O)N[C@@H](C)C(=O)N[C@@H](CCSC)C(=O)N[C@@H](CC(=O)O)C(=O)N[C@@H](CCCCN)C(=O)N[C@H](C(=O)N[C@@H](Cc1c[nH]cn1)C(=O)N[C@@H](CCC(N)=O)C(=O)N[C@@H](CCC(N)=O)C(=O)N[C@@H](CC(=O)O)C(=O)N[C@@H](Cc1ccccc1)C(=O)N[C@H](C(=O)N[C@@H](CC(N)=O)C(=O)N[C@@H](Cc1c[nH]c2ccccc12)C(=O)N[C@@H](CC(C)C)C(=O)N[C@@H](CC(C)C)C(=O)N[C@@H](C)C(=O)N[C@@H](CCC(N)=O)C(=O)N[C@@H](CCCCN)C(N)=O)C(C)C)[C@@H](C)CC` [Example 3, (4Hppa^1, Aib^2, A5c^7)hGIP(1-30)-NH2], 5 nM.

Still in this test, the particulars now being: membranes of CHO-K1 cells expressing the human recombinant GIP receptor; 0.05 nM [125I]GIP; 100 minutes at 25° C.; read-out: Ki.
For the compound “[3Cl-Tyr^1, Aib^2, A5c^11, Cys^43(succinimide-N—(CH2)2—C(O)NH—(CH2)3—O—CH2—CH(20K PEG)-CH2-20K PEG)]hGIP(1-43)-NH2 [Example 102]”, the Ki was determined as 42.4 nM.
